The values below come from US11013830B2, “5-hydroxytryptamine 1B receptor-stimulating agent for enhancing in vivo engraftment potential” (INSTITUT PASTEUR, priority 2015, dated 2021).

In assay [1] the test system is muscle stem cells. Put plainly: Engraftment of grafted muscle stem cells (satellite cells) in cardiotoxin-injured tibialis anterior of Rag-/-γC-/- mice. The assay is classed as in vivo. The settings on record: 28 days post injury. The method, then:
For image analysis, ImageJ 1.46r software was using between 10 different photos randomly taken per section and 3 sections minimum per experimental group. The pictures were converted in a binary image and then the pixel values were collected. For fibre size, the sections were immunostained with rabbit anti Laminin (Sigma-Aldrich #L9393) diluted at 1/200, overnight at 4° C. Secondary Donkey ant Rabbit 488 (DL488 JacksonImmuno #711486152) were used at 1/200 45 minutes at room temperature. The fibre perimeter was done automatically by using Pixcavator® software.
In order to investigate the potential effect of fluoxetine and vortioxetine on the muscle engraftment potential, Rag^−/−γC^−/− immunodeficient mice (Sanchez et al., 2013) were used in this study. Mice were injured with cardiotoxin in the tibialis anterior (TA) and injected with 10,000 satellite cells (SC) 24 hours after the injury. The satellite cells (SC) were obtained from Tg:Pax7nGFP::PLAP mice (Deprimo et al., 1996; Rocheteau et al., 2012), allowing the prospective isolation of a pure population of SC by FACS (Pax7 being a specific marker of SC) and the follow up (PLAP placental alkaline phosphatase being an ubiquitous marker). The TA had been sampled 28 days post engraftment and the number of PLAP fibres was counted.
The Rag^−/−γC^−/− were treated for 6 weeks with fluoxetine per os at 18 mg/Kg at the time of the graft and the treatment continued during the regeneration process (FIG. 1a). When regeneration was completed 28 days post injury, the percentage of PLAP positive fibres was 20.5%±6.5 against 36%±6.2 in the treated animals (p=0.016; n=5, FIG. 1b-d).
To investigate the potential effect of vortioxetine on the engraftment potential, the same approach was used. The Rag^−/−γC^−/− were treated for 12 days by intra peritoneal injections at 20 mg/Kg. Twelve days after the beginning of the treatment, the mice were injured and grafted with Pax7nGFP:PLAP SC. The treatment was continuous during the entire regenerative process (FIG. 1e). 28 days post injury the TA were sampled and stained for Laminin and PLAP. 19%±7.7 fibres were PLAP+ after placebo treatment against 36.1%±5.7 in the vortioxetine treated animals (p=0.028, n=4, FIG. 1f-h).

Assay [2] deals with bone marrow cells. Kind of assay: Engraftment of Tg:ActinGFP bone marrow cells in irradiated Rag-/-γc-/- mice, GFP+ cells by cytometry. The assay is classed as in vivo. An excerpt:
For bone marrow analysis, animals were sacrificed and bone marrow was flushed and filtered through 40 μm cell strainer. The bulk was then directly assessed using Gallios A94303 (Beckman Coulter) and analysed with Kaluza flow cytometry software.
In order to investigate the potential effect of fluoxetine and vortioxetine on the bone marrow engraftment potential, Rag^−/−γc^−/− immunodeficient mice were used. These mice were irradiated at 95 cGy and then injected intravenously with 2 million cells taken from Tg:ActinGFP mouse (Okabe et al., 1997), to track the fate of the grafted cells.
Rag^−/−γc^−/− mice were treated with fluoxetine per os at 18 mg/Kg for 6 weeks. […] The number of GFP+ cells were investigated after 5 weeks in the bone marrow (the treatment was never discontinued). 63.7%±6.5 of GFP+ cells were detected in the placebo mice and 80.7%±8.4 GFP+ cells in the fluoxetine treated mice (p=0.0023, n=7, FIG. 2b,c). There was thus a 25% increase in engraftment efficiency in the fluoxetine treated animals.
To investigate the potential effect of vortioxetine on the engraftment potential, the same approach was used. The Rag^−/−γc^−/− were treated for 12 days by intra peritoneal injections at 20 mg/Kg. Twelve days after the beginning of the treatment, the mice were irradiated at 95 cGy and intravenously grafted with 2 million freshly isolated bone marrow cells from Tg:ActinGFP. 5 weeks after grafting the mice were sacrificed and bone marrow was flushed and analysed (FIG. 2d). The number of GFP+ cells was investigated after 5 weeks in the bone marrow (the treatment was never discontinued). 65.8%±5.5 cells were found in the placebo mice while 80.2%±5.8 cells were found in the vortioxetine treated animals (p=0.0079, n=5, FIG. 2e). There was thus a 21% increase in engraftment potential of bone marrow cells after vortioxetine treatment.
To further characterise the timing of vortioxetine beneficial effects, the previous experiment was repeated without 12 days of pre-treatment (FIG. 2e,f). Rag^−/−γc^−/− were irradiated and grafted 2 hours post irradiation fresh bone marrow from Tg:ActinGFP mice. The same placebo was used displaying 65.8%±5.5 of GFP+ cells and 77.2%7.6 GFP+ cells in the vortioxetine treated animals at the time of the irradiation (p=0.04, n=5, FIG. 2e,g). A similar increase in engraftment potential (17%) was observed when animals were not pre-treated.

Assay [3] has as its system muscle stem cells. The settings on record: fluoxetine 18 mg/Kg for 6 weeks; after 21 days; n=8; placebo 25.7%±8.7.
Description: Mice were anesthetised and injured with cardiotoxin 18 hours before grafting in the tibialis anterior. Before grafting the mice were anesthetised again and grafted with 10,000 cells in 40 nl in PBS. Mice were kept for 28 days until muscle regeneration was complete. […] Mice were sacrificed 5 weeks after the injection.
Tibialis anterior was carefully dissected and snap frozen in liquid-nitrogen-cooled isopentane for a few minutes and stored at −80° C. prior to cryosectioning (10 μm sections). Sections were kept at room temperature overnight before staining. Sections were then rehydrated in PBS for 10 minutes and fixed in 10% formalin for 3 minutes. The sections were then routinely stained with PLAP antibody manually.
Fluoxetine treatment was provided at 18 mg/Kg for 6 weeks to Rag^−/−γc^−/− mice. The tibialis anterior (TA) was injured and 18 h post injury 10,000 satellite cells (SC) coming from Tg:Pax7nGFP:PLAP:MyHC2E3FLacZ triple transgenic mice were grafted to the Rag^−/−γc^−/− mice pre-treated with fluoxetine.

As for `CNCCC(Oc1ccc(C(F)(F)F)cc1)c1ccccc1` (centres unmarked) [fluoxetine], the “percentage of PLAP positive fibres” value in assay [1] (fluoxetine per os 18 mg/Kg for 6 weeks before graft and continued, n=5, placebo 20.5%±6.5) is recorded as 36%±6.2. Further, the “engraftment potential of the injected SC versus placebo” value in assay [1] (fluoxetine per os 18 mg/Kg, 6 weeks pre-treatment) is listed as “almost doubled”. For the same compound, the “GFP+ cells in the bone marrow” value in assay [2] (fluoxetine per os 18 mg/Kg for 6 weeks before irradiation/graft, never discontinued, 5 weeks after grafting, n=7, placebo 63.7%±6.5) is on record as 80.7%±8.4. The “increase in engraftment efficiency versus placebo” value in assay [2] (fluoxetine per os 18 mg/Kg, 6 weeks pre-treatment, 5 weeks after grafting) was found to be 25%. For the same compound, in assay [3], the “percentage of fibers PLAP+ (coming from the graft)” value is listed as 39%±6.6.

With `Cc1ccc(Sc2ccccc2N2CCNCC2)c(C)c1` [vortioxetine, 1-[2-(2,4-Dimethylphenylsulfanyl)phenyl]piperazine], the “percentage of PLAP+ fibres” value in assay [1] (vortioxetine intra peritoneal 20 mg/Kg for 12 days before graft and continued, n=4, placebo 19%±7.7) was 36.1%±5.7. In addition, in assay [1] (vortioxetine intra peritoneal 20 mg/Kg, 12 days pre-treatment), the “engraftment potential of the injected SC versus placebo” value is “more than doubled”. Also, in assay [2] (vortioxetine 20 mg/Kg, 12 days pre-treatment, 5 weeks after grafting), the “increase in engraftment potential of bone marrow cells versus placebo” value amounted to 21%. The “GFP+ cells in the bone marrow” value in assay [2] (vortioxetine intra peritoneal 20 mg/Kg for 12 days before irradiation/graft, never discontinued, 5 weeks after grafting, n=5, placebo 65.8%±5.5) was 80.2%±5.8; in assay [2] (vortioxetine started at the time of the irradiation, without 12 days of pre-treatment, 5 weeks after grafting, n=5, placebo 65.8%±5.5), 77.2%. Also, the “increase in engraftment potential versus placebo” value in assay [2] (vortioxetine, animals not pre-treated) is 17%.
